Experimental data from the METLIN SMRT retention time set (Domingo-Almenara et al. 2019).

Experiment: gradient 5% acetonitrile 3 min, to 50% in 2 min, to 85% in 15 min, held 3 min, 100 µL/min
Details: column: Zorbax Extend-C18 2.1 x 50 mm; eluents: water / acetonitrile, 0.1% formic acid
Procedure, shortened: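 Standards, all pure, were combined into mixtures of ~100 molecules and run at 100 μL/min on a Zorbax Extend-C18 column (2.1 × 50 mm, 1.8 μm) with water and acetonitrile, each containing 0.1% formic acid. A coupled quadrupole time-of-flight mass spectrometer operated in positive and negative ionization mode. Retention time values come from computationally picked adduct peaks, each inspected manually.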

Compound	RP-LC retention time
CCOC(=O)C1=C(CN2CCC(c3ccccc3)C2)NC(=O)NC1c1cccs1 (centres undefined)	681 s
O=C(CCC[C@@H]1[C@H]2CCCN3CCC[C@@H](CN1C(=O)c1ccccc1)[C@@H]23)Nc1ccc2c(c1)OCCO2	647 s
O=C(Cn1cc(-c2ccccc2)c2ncnc(N3CCOCC3)c21)NCc1ccc(Cl)cc1	778 s
CC(=O)N1C[C@@H]2CCCN3CCC[C@@H]([C@H]23)[C@H]1CCCC(=O)N(C)CCc1c(C)nn(C)c1C	556 s
CCCCN1C(=O)C(CC(=O)NC2CCCC2)Sc2ncccc21 (centres undefined)	808 s
Cc1cnc(C2CC2)n1C1CCCN(S(=O)(=O)Cc2ccccc2)C1 (centres undefined)	637 s
CCOC(=O)c1nnn(-c2ccccc2OC)c1C(=O)OCC	917 s
O=C(NCC1CCOCC1)Nc1ccc(Cl)cc1C(F)(F)F	846 s
Cc1ccc(C)c(C(=O)N2CCc3c(c(-c4nc(C5CC5)no4)nn3C)C2)c1	854 s
CCOC(=O)N1CCN(S(=O)(=O)c2ccc(C(=O)Nc3cccc(C)n3)cc2)CC1	721 s
COC1CCC12CCN(C(=O)c1ccoc1)CC2 (centres undefined)	723 s
O=C(COc1ccc(F)cc1)Nc1cnc(N2CCCCCC2)nc1	957 s
CCn1cc(CCNC(=O)Nc2cc(F)c(F)c(F)c2)c2cccnc21	820 s
CCOc1cc(=O)n2c(c1C(=O)OCc1ccc(C)cc1)CCCCC2	1010 s
CCS(=O)(=O)N1CC(=O)N(Cc2cccc(C)c2)C(C)(C(=O)NCc2ccc(F)cc2)C1 (centres undefined)	882 s
CCN(CCCNC(=O)C1CCCN(c2ncnc3c2oc2ccccc23)C1)c1ccccc1 (centres undefined)	649 s
CC1CCN(c2ncc3c(n2)CCC(C(=O)NCc2ccc(OC(C)C)cc2)C3)CC1 (centres undefined)	908 s
O=C([C@@H]1C[C@H](F)CN1S(=O)(=O)c1cccc(F)c1)N1CCOCC1	676 s
CC1CCN(c2cc(-n3cnc(C(=O)N4CCN(C5CCCCC5)CC4)c3)ncn2)CC1	597 s
O=C(NC1CCCCC1)N1CCC(CCc2nc(C3CCOCC3)no2)CC1	709 s
COc1ccc2c(c1)C1(CCN(C(=O)Cc3cccc(F)c3)C1)C(=O)N2 (centres undefined)	740 s

Compound	RP-LC retention time
O=C(Nc1ccccc1Br)N1CCN(CCn2c(C(F)(F)F)nc3cccnc32)CC1	657 s
O=C(NCc1ccccc1C(F)(F)F)c1cn2ccccc2n1	757 s
Cc1cccc(-c2nn3c(N4CCN(c5ccccn5)CC4)cc(C)nc3c2C)c1	648 s
O=C(NCc1csc(-c2ccccc2)n1)[C@H]1CCCN1C(=O)COc1ccc(Cl)cc1	861 s
CCCCS(=O)(=O)c1cc2c(cc1NC(=O)c1c(F)cccc1F)n(C)c(=O)n2C	800 s
COc1ccccc1-c1csc(-c2nnn(-c3ccc(Cl)cc3)c2N)n1	1190 s
O=C(Cn1c(=O)cc(-c2nc(C3CC3)no2)c2ccccc21)NCCC1=CCCCC1	1110 s
O=S(=O)(c1ccc(-c2nnc(C3CC3)o2)o1)N1CCN(c2ccc(F)cc2)CC1	981 s
C=CCn1nnc(NCc2ccc(-c3cccc(Cl)c3C)o2)n1	1090 s
Cn1c(N2CCC(C(=O)N3CCN(Cc4ccc5c(c4)OCO5)CC3)CC2)cc(=O)n(C)c1=O	579 s
CCc1c(C2CCN(C(=O)c3ccnn3C)CC2)noc1N	596 s
Cn1cc(S(=O)(=O)N2CCCC2)cc1C(=O)N1CCC(Cc2ccccc2)CC1	960 s
CC(=O)Nc1ccc(SCc2ccccn2)nn1	527 s
CCOc1ccccc1N1CCN(S(=O)(=O)c2nn(C)cc2C(=O)NC2CCCC2)CC1	1030 s
Cc1noc2ncnc(N3CCN(c4ccccn4)CC3)c12	562 s
CC(=O)N1c2ccc(S(=O)(=O)NCc3ccc4c(c3)CCN4C(=O)CC(C)C)cc2CC1C (centres undefined)	874 s
O=S(=O)(c1cc(-c2ccno2)cs1)N1CCN(c2ncccn2)CC1	843 s
CC1CN2C=NC(N3CCN(S(=O)(=O)Cc4cccc(Cl)c4)CC3)=CC2=N1 (centres undefined)	627 s
COc1ccccc1CNC(=O)C1CCN(S(=O)(=O)c2cn(C(C)C)cn2)CC1	733 s
COc1ccc(-c2cc(N3CCN(C(=O)Nc4ccc(OC)c(OC)c4)CC3)ncn2)cc1	620 s
O=C(c1ccco1)N1CC(Oc2ccc(-c3nc(-c4ccccc4)no3)cc2)C1	856 s

Compound	RP-LC retention time
Cc1ccc(CN2CCN(C3CCN(C(=O)c4ccc(Br)o4)CC3)C(=O)C2=O)cc1	718 s
COC(=O)Nc1nc(CC(=O)NCc2cn3ccccc3n2)cs1	617 s
O=C(NCc1cc(F)cc(F)c1)c1ccc(NC(=O)C2CCC2)cc1N1CCOCC1	871 s
COCC(=O)N1CCCCCCNC(=O)[C@@H]2CCCC[C@@H]21	659 s
CCN(CC)C(=O)CSc1nnc(-c2ccc3c(c2)OCCCO3)n1C	691 s
CCN(CCCc1ccccc1)CCCc1ccccc1	874 s
CC(C)NC(=O)C1CCN(S(=O)(=O)c2cc(-c3noc(C4CCC4)n3)cs2)CC1	913 s
COc1cccc(NC(=O)N2CCN(c3cc(C)nc(N4CCOCC4)n3)CC2)c1	628 s
Cc1ccc(CNC(=O)C2(C)CCCN(C(=O)Nc3cccc(F)c3)C2)cc1 (centres undefined)	967 s
CCOC(=O)C1=C(N)Oc2cc(C)n(CCN(C)C)c(=O)c2C1c1ccccc1F (centres undefined)	648 s
CNC(=O)[C@@H]1C[C@H](Oc2ccccc2)CN1C(=O)COc1ccccc1	603 s
Cc1ccc(CNC(=O)C2(C)CCC(=O)N2CCc2c[nH]c3ccccc23)cc1 (centres undefined)	805 s
CCOC(=O)c1cc(OC)c(OC)cc1NC(=O)c1cc(OC)c(OC)c(OC)c1	1030 s
Fc1cccc(CN2CC[C@@H]3CN(Cc4ccccc4)[C@@H]3C2)c1	624 s
CCN1c2cc(C(=O)NCCC3=CCCCC3)ccc2C(=O)N2CCCCC21 (centres undefined)	959 s
CN1C(=O)COc2cc(-c3noc(C(=O)N4CCCC4)n3)ccc21	746 s
CN1CCCc2cc(C(CNC(=O)C(=O)Nc3ccc4c(c3)OCO4)N3CCCCC3)ccc21 (centres undefined)	718 s
COc1ccccc1OC(C)C(=O)N1CCN(c2cc(C)n3cnnc3n2)CC1 (centres undefined)	599 s
CN(C)CC1(O)CCC2(CCN(C(=O)c3cccn3C)CC2)CC1	577 s

More lines, now with the values ahead:

RP-LC retention time	Compound
1100 s	Cc1ccccc1CNC(=O)c1cn(-c2ccc(-c3nc(C(C)(C)C)no3)cn2)cn1
728 s	Oc1cccc(-c2nc3cnccn3c2Nc2ccc(F)cc2)c1
659 s	O=C(Nc1ccc(F)cc1)Nc1ccc2nncn2c1
1050 s	COc1ccc(N2C(=O)C3N=NN(Cc4nc(-c5ccc(C)c(C)c5)no4)C3C2=O)cc1 (centres undefined)
885 s	Cc1nc(-c2noc(-c3ccncc3)n2)cn1CC(=O)NCc1ccc(F)cc1
776 s	CCC(C)NC(=O)c1cc(COc2ccc(NC(=O)C(C)C)cc2)on1 (centres undefined)
882 s	Cc1ccc(CNC(=O)Cn2cccc2-c2nnc(-c3ccccc3)o2)o1
937 s	O=C(Cn1cccc1-c1nnc(C2CCC2)o1)NCc1cccc(Br)c1
783 s	CCc1nc2onc(C)c2c(=O)n1CC(=O)NCc1ccc(F)cc1
1040 s	Cc1ccc(-c2nc(Cn3cccc3C(=O)NCc3cccs3)no2)cc1
747 s	COCc1nc2cccnc2n1C1CCN(C(=O)Nc2ccc(Br)cc2)CC1
930 s	Cc1cc(C)n(Cc2nc(-c3ccc(NC(=O)Cc4cccc(F)c4)cc3)oc2C)n1
995 s	Cc1nc(Cn2cccc2C(=O)Nc2ccc(Br)c(C)c2)no1
877 s	Cc1ccc(N2N=C(C(=O)NCC3CCCO3)S(=O)(=O)c3cc(F)ccc32)cc1 (centres undefined)
676 s	Cc1cc(C)cc(-n2c(CN3CCN(C(=O)Nc4ccc5c(c4)OCO5)CC3)nc3cccnc32)c1
1110 s	Cc1nc2cc(-c3noc(C(C)Oc4cccc(Cl)c4)n3)ccc2n(C)c1=O (centres undefined)
937 s	CCc1nc(OCC(=O)Nc2ccc(Cl)cc2Cl)c2ccccc2n1
867 s	CCCn1cc(C(=O)Nc2ccc(S(N)(=O)=O)cc2)c(=O)c2ccc(C)nc21
668 s	Cc1nccn1Cc1nc(-c2ccc(F)c(Br)c2)no1
937 s	CCN1C(=O)c2cccnc2Sc2cc(NC(=O)C3(c4ccccc4)CC3)ccc21
638 s	O=C(Nc1c(-c2ccc(F)cc2)nc2ccccn12)c1ccccc1
1220 s	Cc1cc(NS(=O)(=O)c2cc(-c3nc(C(C)(C)C)cs3)cs2)ccc1F
568 s	COc1ccccc1CN1CN=C(Nc2nc(C)c3ccc(C)cc3n2)NC1
895 s	CCS(=O)(=O)c1ccc2c(c1)N(Cc1nc(-c3ccccc3Cl)no1)C(=O)CO2
947 s	CN(C)S(=O)(=O)c1cccc(-c2nnc(-c3ccccc3Br)o2)c1
819 s	CNC(=O)c1cc(-c2ccc(F)cc2)nc2ccccc12
747 s	Cc1cccn2c(Nc3ccc4c(c3)OCCO4)c(-c3ccc(Cl)cc3)nc12
761 s	Cc1ccc(-c2nc3nc(C)c(CC(=O)NC(C)C)c(C)n3n2)cc1
